In ChEMBL document CHEMBL1201862, “PubChem BioAssay data set” (2004):
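Values below derive from 48-hour exposures of cells grown in 96-well plates, with endpoints linearly interpolated between the two concentrations bracketing the appropriate inhibition level. Abbreviation: GI50, concentration required for 50% inhibition of growth.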 Active and inactive are the calls of the source. No stated cut-off is given here; in the data, active = GI50 up to about 1.1 µM and inactive = higher.

Experiments:
Experiment in all cases: NCI tumour cell line growth inhibition, 48 h
SNB-19 = test system: SNB-19
UO-31 = test system: UO-31
M14 = test system: M14
IGROV-1 = test system: IGROV-1
NCI-H460 = test system: NCI-H460
CAKI-1 = test system: CAKI-1
HL-60 = test system: HL-60
Malme-3M = test system: Malme-3M
SK-MEL-28 = test system: SK-MEL-28
K562 = test system: K562
XF498 = test system: XF498
SNB-75 = test system: SNB-75
OVCAR-4 = test system: OVCAR-4
SR = test system: SR
HOP-18 = test system: HOP-18
CCRF-CEM = test system: CCRF-CEM
SK-OV-3 = test system: SK-OV-3
DMS-273 = test system: DMS-273
OVCAR-3 = test system: OVCAR-3
HT-29 = test system: HT-29
RXF 393 = test system: RXF 393
COLO 205 = test system: COLO 205
HCT-116 = test system: HCT-116
SK-MEL-2 = test system: SK-MEL-2
EKVX = test system: EKVX
OVCAR-8 = test system: OVCAR-8
SN12C = test system: SN12C
HOP-92 = test system: HOP-92
SW-620 = test system: SW-620
KM12 = test system: KM12
KM-20L2 = test system: KM-20L2
A498 = test system: A498
HCC 2998 = test system: HCC 2998
786-0 = test system: 786-0
DMS-114 = test system: DMS-114
U-251 = test system: U-251
SK-MEL-5 = test system: SK-MEL-5
SF-268 = test system: SF-268
ACHN = test system: ACHN
MOLT-4 = test system: MOLT-4
SF-539 = test system: SF-539
HCT-15 = test system: HCT-15
NCI-H226 = test system: NCI-H226
A549 = test system: A549
M19-MEL = test system: M19-MEL
NCI-H522 = test system: NCI-H522
TK-10 = test system: TK-10
NCI-H23 = test system: NCI-H23
LXFL 529 = test system: LXFL 529
RPMI-8226 = test system: RPMI-8226
SF-295 = test system: SF-295
DLD-1 = test system: DLD-1
LOX IMVI = test system: LOX IMVI
SNB-78 = test system: SNB-78
OVCAR-5 = test system: OVCAR-5
UACC-257 = test system: UACC-257
UACC-62 = test system: UACC-62
HOP-62 = test system: HOP-62

OC(CCl)CN1CC[N+]2(CC1)CC[N+]1(CCN(CC(O)CCl)CC1)CC2 (configuration not stated) [PROSPIDIUM CHLORIDE]
GI50 (SNB-19): > 50 µM (inactive) | GI50 (UO-31): > 50 µM (inactive) | GI50 (M14): > 50 µM (inactive) | GI50 (IGROV-1): > 50 µM (inactive) | GI50 (NCI-H460): > 50 µM (inactive) | GI50 (CAKI-1): > 50 µM (inactive) | GI50 (HL-60): > 50 µM (inactive) | GI50 (Malme-3M): > 50 µM (inactive) | GI50 (SK-MEL-28): > 50 µM (inactive) | GI50 (K562): > 50 µM (inactive) | GI50 (XF498): > 50 µM (inactive) | GI50 (SNB-75): > 50 µM (inactive) | GI50 (OVCAR-4): > 50 µM (inactive) | GI50 (SR): > 50 µM (inactive) | GI50 (HOP-18): > 50 µM (inactive) | GI50 (CCRF-CEM): > 50 µM (inactive) | GI50 (SK-OV-3): > 50 µM (inactive) | GI50 (DMS-273): > 50 µM (inactive) | GI50 (OVCAR-3): > 50 µM (inactive) | GI50 (HT-29): > 50 µM (inactive) | GI50 (RXF 393): > 50 µM (inactive) | GI50 (COLO 205): > 50 µM (inactive) | GI50 (HCT-116): > 50 µM (inactive) | GI50 (SK-MEL-2): > 50 µM (inactive) | GI50 (EKVX): > 50 µM (inactive) | GI50 (OVCAR-8): > 50 µM (inactive) | GI50 (SN12C): > 50 µM (inactive) | GI50 (HOP-92): > 50 µM (inactive) | GI50 (SW-620): > 50 µM (inactive) | GI50 (KM12): > 50 µM (inactive) | GI50 (KM-20L2): > 50 µM (inactive) | GI50 (A498): > 50 µM (inactive) | GI50 (HCC 2998): > 50 µM (inactive) | GI50 (786-0): > 50 µM (inactive) | GI50 (DMS-114): 41.6 µM (inactive) | GI50 (U-251): > 50 µM (inactive) | GI50 (SK-MEL-5): > 50 µM (inactive) | GI50 (SF-268): > 50 µM (inactive) | GI50 (ACHN): > 50 µM (inactive) | GI50 (MOLT-4): > 50 µM (inactive) | GI50 (SF-539): > 50 µM (inactive) | GI50 (HCT-15): > 50 µM | GI50 (NCI-H226): > 50 µM (inactive) | GI50 (A549): > 50 µM (inactive) | GI50 (M19-MEL): > 50 µM (inactive) | GI50 (NCI-H522): > 50 µM (inactive) | GI50 (TK-10): > 50 µM (inactive) | GI50 (NCI-H23): > 50 µM (inactive) | GI50 (LXFL 529): > 50 µM (inactive) | GI50 (RPMI-8226): > 50 µM (inactive) | GI50 (SF-295): > 50 µM (inactive)

CSc1nc(NC2OCC(OC(C)=O)C(OC(C)=O)C2OC(C)=O)c(/N=C(\C)C(C)=O)c(=O)[nH]1 (configuration not stated)
GI50 (SNB-19): > 100 µM (inactive) | GI50 (M14): > 100 µM (inactive) | GI50 (DLD-1): > 100 µM (inactive) | GI50 (IGROV-1): > 100 µM (inactive) | GI50 (NCI-H460): > 100 µM (inactive) | GI50 (CAKI-1): > 100 µM (inactive) | GI50 (HL-60): > 100 µM (inactive) | GI50 (Malme-3M): > 100 µM (inactive) | GI50 (SK-MEL-28): > 100 µM (inactive) | GI50 (K562): > 100 µM (inactive) | GI50 (LOX IMVI): > 100 µM (inactive) | GI50 (XF498): > 100 µM (inactive) | GI50 (SNB-75): > 100 µM (inactive) | GI50 (SNB-78): > 100 µM (inactive) | GI50 (OVCAR-4): > 100 µM (inactive) | GI50 (SR): > 100 µM (inactive) | GI50 (HOP-18): > 100 µM (inactive) | GI50 (CCRF-CEM): > 100 µM (inactive) | GI50 (OVCAR-5): > 100 µM (inactive) | GI50 (DMS-273): > 100 µM (inactive) | GI50 (HT-29): > 100 µM (inactive) | GI50 (UACC-257): > 100 µM (inactive) | GI50 (RXF 393): > 100 µM (inactive) | GI50 (COLO 205): > 100 µM (inactive) | GI50 (HCT-116): > 100 µM (inactive) | GI50 (SK-MEL-2): > 100 µM (inactive) | GI50 (EKVX): > 100 µM (inactive) | GI50 (OVCAR-8): > 100 µM (inactive) | GI50 (SN12C): > 100 µM (inactive) | GI50 (HOP-92): > 100 µM (inactive) | GI50 (SW-620): > 100 µM (inactive) | GI50 (KM12): > 100 µM (inactive) | GI50 (A498): > 100 µM (inactive) | GI50 (DMS-114): > 100 µM (inactive) | GI50 (U-251): > 100 µM (inactive) | GI50 (SK-MEL-5): > 100 µM (inactive) | GI50 (SF-268): > 100 µM (inactive) | GI50 (ACHN): > 100 µM (inactive) | GI50 (MOLT-4): > 100 µM (inactive) | GI50 (SF-539): > 100 µM (inactive) | GI50 (HCT-15): > 100 µM | GI50 (NCI-H226): 0.164 µM (active) | GI50 (A549): > 100 µM (inactive) | GI50 (TK-10): > 100 µM (inactive) | GI50 (NCI-H23): > 100 µM (inactive) | GI50 (LXFL 529): > 100 µM (inactive) | GI50 (RPMI-8226): > 100 µM (inactive) | GI50 (SF-295): > 100 µM (inactive)

O=C(Nc1ccn(CCI)c(=O)n1)c1ccccc1
GI50 (UO-31): > 100 µM (inactive) | GI50 (M14): > 100 µM (inactive) | GI50 (DLD-1): > 100 µM (inactive) | GI50 (IGROV-1): > 100 µM (inactive) | GI50 (NCI-H460): > 100 µM (inactive) | GI50 (CAKI-1): > 100 µM (inactive) | GI50 (HL-60): > 100 µM (inactive) | GI50 (Malme-3M): > 100 µM (inactive) | GI50 (SK-MEL-28): > 100 µM (inactive) | GI50 (K562): > 100 µM (inactive) | GI50 (LOX IMVI): > 100 µM (inactive) | GI50 (SNB-75): > 100 µM (inactive) | GI50 (SNB-78): > 100 µM (inactive) | GI50 (OVCAR-4): > 100 µM (inactive) | GI50 (SR): > 100 µM (inactive) | GI50 (HOP-18): > 100 µM (inactive) | GI50 (CCRF-CEM): > 100 µM (inactive) | GI50 (OVCAR-5): > 100 µM (inactive) | GI50 (SK-OV-3): > 100 µM (inactive) | GI50 (DMS-273): > 100 µM (inactive) | GI50 (OVCAR-3): > 100 µM (inactive) | GI50 (HT-29): > 100 µM (inactive) | GI50 (UACC-257): > 100 µM (inactive) | GI50 (RXF 393): > 100 µM (inactive) | GI50 (COLO 205): > 100 µM (inactive) | GI50 (UACC-62): > 100 µM (inactive) | GI50 (HCT-116): > 100 µM (inactive) | GI50 (SK-MEL-2): > 100 µM (inactive) | GI50 (EKVX): > 100 µM (inactive) | GI50 (OVCAR-8): > 100 µM (inactive) | GI50 (SN12C): > 100 µM (inactive) | GI50 (HOP-92): > 100 µM (inactive) | GI50 (SW-620): > 100 µM (inactive) | GI50 (KM12): > 100 µM (inactive) | GI50 (KM-20L2): > 100 µM (inactive) | GI50 (A498): > 100 µM (inactive) | GI50 (786-0): > 100 µM (inactive) | GI50 (DMS-114): > 100 µM (inactive) | GI50 (U-251): > 100 µM (inactive) | GI50 (SK-MEL-5): > 100 µM (inactive) | GI50 (SF-268): > 100 µM (inactive) | GI50 (ACHN): > 100 µM (inactive) | GI50 (SF-539): > 100 µM (inactive) | GI50 (HCT-15): > 100 µM | GI50 (NCI-H226): > 100 µM (inactive) | GI50 (A549): > 100 µM (inactive) | GI50 (M19-MEL): > 100 µM (inactive) | GI50 (NCI-H522): > 100 µM (inactive) | GI50 (HOP-62): > 100 µM (inactive) | GI50 (TK-10): > 100 µM (inactive) | GI50 (LXFL 529): > 100 µM (inactive) | GI50 (RPMI-8226): > 100 µM (inactive) | GI50 (SF-295): > 100 µM (inactive)
